For 9 molecules, MIC results are on record in article PMC8703412 (Pharmaceuticals, 2021).

Type in all cases: cell-based
Test [1] deals with Mycobacterium avium 330/88. Kind of test: MIC micromethod in Šula's medium, M. avium. The conditions noted are these: Mycobacterium avium.
The subject of test [2] is Mycobacterium kansasii 6509/96 (clinical isolate). Kind of test: MIC micromethod in Šula's medium, M. kansasii. The conditions noted are these: Mycobacterium kansasii.
Test [3] deals with Mycobacterium tuberculosis strain 331/88 (i.e., H37Rv). Kind of test: MIC micromethod in Šula's medium, drug-susceptible Mtb. As to conditions: Mycobacterium tuberculosis, H37RV, precursors, Table 2.
[4] abbreviates: 330/88, 336 h, 14 d incubation, precursors, Table 2, read-out: MIC M. avium 330/88 14 d.
Setting [5] is: 330/88, 504 h, 21 d incubation, precursors, Table 2, read-out: MIC M. avium 330/88 21 d.
[6] abbreviates: 168 h, 7 d incubation, precursors, Table 2, read-out: MIC M. kansasii 6509/96 7 d.
Where [7] appears, read: 336 h, 14 d incubation, precursors, Table 2, read-out: MIC M. kansasii 6509/96 14 d.
Where [8] appears, read: 504 h, 21 d incubation, precursors, Table 2, read-out: MIC M. kansasii 6509/96 21 d.
The mark [9] stands for this setting: 336 h, 14 d incubation, read-out: MIC Mtb. 331/88 14 d.
The mark [10] stands for this setting: 504 h, 21 d incubation, read-out: MIC Mtb. 331/88 21 d.
Setting [11] is: 168 h, read-out: MIC M. kansasii 6509/96 7 d.
Where [12] appears, read: 330/88, 336 h, read-out: MIC M. avium 330/88 14 d.
Setting [13] is: 330/88, 504 h, read-out: MIC M. avium 330/88 21 d.
Setting [14] is: 336 h, read-out: MIC M. kansasii 6509/96 14 d.
[15] abbreviates: 504 h, read-out: MIC M. kansasii 6509/96 21 d.

Structures are written as SMILES. Values after ≈ are worked out from the molar mass of the structure shown. Read-outs that look alike come from different tables or passages of the source.

With `Oc1cccc2ccccc12` [1-naphthol, reference compound], the MIC in test [1] (setting [4]) worked out at 500 µM (≈ 72.1 µg/mL); in test [1] (setting [5]), 500 µM (≈ 72.1 µg/mL); in test [2] (setting [6]), 125 µM (≈ 18 µg/mL); in test [2] (setting [7]) it was 250 µM (≈ 36 µg/mL); in test [2] (setting [8]) it was 500 µM (≈ 72.1 µg/mL); in test [3] (setting [9]) it was 250 µM (≈ 36 µg/mL). Moreover, the MIC in test [3] (setting [10]) is 500 µM (≈ 72.1 µg/mL).
As for `Oc1ccc2ccccc2c1` [2-naphthol, reference compound], the MIC worked out at 1000 µM (≈ 144 µg/mL) in test [1] (setting [4]); 1000 µM (≈ 144 µg/mL) in test [1] (setting [5]); 250 µM (≈ 36 µg/mL) in test [2] (setting [11]); 500 µM (≈ 72.1 µg/mL) in test [2] (setting [7]); 500 µM (≈ 72.1 µg/mL) in test [2] (setting [8]); 500 µM (≈ 72.1 µg/mL) in test [3] (setting [9]). Moreover, the MIC in test [3] (setting [10]) is 500 µM (≈ 72.1 µg/mL).
For the molecule `Oc1ccc(Oc2ccccc2)cc1` [4-phenoxyphenol, reference compound], the MIC came out at 250 µM (≈ 46.6 µg/mL) in test [1] (setting [4]); 500 µM (≈ 93.1 µg/mL) in test [1] (setting [5]); 32 µM (≈ 5.96 µg/mL) in test [2] (setting [6]); 64 µM (≈ 11.9 µg/mL) in test [2] (setting [7]); 125 µM (≈ 23.3 µg/mL) in test [2] (setting [8]); 64 µM (≈ 11.9 µg/mL) in test [3] (setting [9]). Besides, in test [3] (setting [10]), the MIC amounted to 64 µM (≈ 11.9 µg/mL).
For the molecule `Cc1ccc(C(C)C)cc1O` [Carvacrol, reference compound], the MIC in test [1] (setting [12]) worked out at 250 µM (≈ 37.6 µg/mL); in test [1] (setting [13]) it was 500 µM (≈ 75.1 µg/mL); in test [2] (setting [11]), 125 µM (≈ 18.8 µg/mL); in test [2] (setting [14]) it was 250 µM (≈ 37.6 µg/mL); in test [2] (setting [15]), 500 µM (≈ 75.1 µg/mL); in test [3] (setting [9]) it was 125 µM (≈ 18.8 µg/mL). In test [3] (setting [10]), the MIC was found to be 250 µM (≈ 37.6 µg/mL).
Regarding `Cc1ncc([N+](=O)[O-])n1CCO` [Metronidazole, reference compound], the MIC in test [1] (setting [4]) was greater than 1000 µM; in test [1] (setting [5]), greater than 1000 µM; in test [2] (setting [6]), 1000 µM (≈ 171 µg/mL); in test [2] (setting [7]) it was greater than 1000 µM; in test [2] (setting [8]), greater than 1000 µM; in test [3] (setting [9]), greater than 1000 µM. The MIC in test [3] (setting [10]) was greater than 1000 µM.
`CC(=O)Nc1ccc(O)cc1` [Paracetamol, reference compound]: the MIC in test [1] (setting [4]), in test [1] (setting [5]), in test [3] (setting [9]) and in test [3] (setting [10]) was greater than 1000 µM each time.
On to `Oc1cccc2cccnc12` [Quinolin-8-ol, reference compound], for which the MIC turned out to be 64 µM (≈ 9.29 µg/mL) in test [1] (setting [12]); 64 µM (≈ 9.29 µg/mL) in test [1] (setting [13]); 16 µM (≈ 2.32 µg/mL) in test [2] (setting [11]); 32 µM (≈ 4.65 µg/mL) in test [2] (setting [14]); 32 µM (≈ 4.65 µg/mL) in test [2] (setting [15]); 8 µM (≈ 1.16 µg/mL) in test [3] (setting [9]). Further, the MIC in test [3] (setting [10]) worked out at 8 µM (≈ 1.16 µg/mL).
For `Cc1ccc(C(C)C)c(O)c1` [Thymol, reference compound], the MIC turned out to be 250 µM (≈ 37.6 µg/mL) in test [1] (setting [4]); 500 µM (≈ 75.1 µg/mL) in test [1] (setting [5]); 125 µM (≈ 18.8 µg/mL) in test [2] (setting [11]); 250 µM (≈ 37.6 µg/mL) in test [2] (setting [7]); 500 µM (≈ 75.1 µg/mL) in test [2] (setting [8]); 64 µM (≈ 9.61 µg/mL) in test [3] (setting [9]). Besides, the MIC in test [3] (setting [10]) stood at 125 µM (≈ 18.8 µg/mL).
As to `Oc1cc(Cl)ccc1Oc1ccc(Cl)cc1Cl` [Triclosan, 5-chloro-2-(2,4-dichlorophenoxy)phenol, reference compound], the MIC came out at 64 µM (≈ 18.5 µg/mL) in test [1] (setting [12]); 64 µM (≈ 18.5 µg/mL) in test [1] (setting [13]); 16 µM (≈ 4.63 µg/mL) in test [2] (setting [11]); 32 µM (≈ 9.27 µg/mL) in test [2] (setting [14]); 32 µM (≈ 9.27 µg/mL) in test [2] (setting [15]); 32 µM (≈ 9.27 µg/mL) in test [3] (setting [9]). For the same molecule, the MIC in test [3] (setting [10]) came out at 32 µM (≈ 9.27 µg/mL).
